Counter-ions that a name gives are not always drawn.
Legend:
[1] = system: SirT1 levels in N2a-E4 cells; experiment: SirT1 levels by AlphaLISA in ApoE4-transfected N2a cells; type: cell-based, murine; conditions: for SirT1 increase: N2a-E4 cells
Description: Prompted by the emerging importance of the associations between ApoE4 and the expression/protein levels of SirT1, high-throughput screening (HTS) of the UCLA compound library was performed using AlphaLISA to detect SirT1 levels in murine neuroblastoma cells stably transfected with ApoE4 (E4-N2a) to identify SirT1 enhancers. […] In the in vivo study, mice were treated orally at 40 mkd (20 mg/kg BID) for 56 days and underwent assessment of cognition in the Novel Object Recognition (NOR) testing paradigm. […] The performance of A03-treated E4-AD mice (FIG. 5A) improved to level of non-transgenic vehicle-treated mice.
Throughout, for PAMPA: unit not given here.

| PAMPA (PAMPA) | Structure (SMILES) | SirT1 SOμM [1] | SirT1 SμM [1] | SirT1 increase [1] |
| --- | --- | --- | --- | --- |
|  | C[C@H](NC(=O)OC(C)(C)C)C(=O)N[C@H]1CCC[C@H]1c1ccc(Cl)cc1 (mixture of isomers) [MP-95, tert-butyl-((S)-1-(((±)-cis-2-(4-chlorophenyl)cyclopentyl)amino)-1-oxopropan-2-yl)carbamate] | a, a (a <250%) | a, a (a <250%) |  |
|  | C[C@H](N)C(=O)N[C@H]1CCCCNC1=O.Cl (racemic) [MP-103, (S)-2-amino-N—((S)-2-oxoazepan-3-yl)propanamide hydrochloride] | a, a (a <250%) | a, a (a <250%) |  |
| 0.68 | C[C@H](N)C(=O)OC1(Cc2ccc(Cl)cc2)CCNC1 (single isomer, unassigned) [MP-32, 3-(4-chlorobenzyl)pyrrolidin-3-yl L-alaninate] | C (C = 100% increase versus control) | A (A >20%) |  |
| 0.7 | C[C@H](N)C(=O)OC1(Cc2ccc(Cl)cc2)CCNC1 (single isomer, unassigned) [MP-33, 3-(4-chlorobenzyl)pyrrolidin-3-yl L-alaninate] | C (C = 100% increase versus control) | A (A >20%) |  |
|  | C[C@H](NC(=O)OC(C)(C)C)C(=O)O[C@H]1CCC[C@@H]1c1ccc(Cl)cc1 (single isomer, unassigned) [MP-87] | a, a (a <250%) | a, a (a <250%) |  |
|  | C[C@H](NC(=O)OC(C)(C)C)C(=O)O[C@H]1CCC[C@@H]1c1ccc(Cl)cc1 (single isomer, unassigned) [MP-88] | a, a (a <250%) | a, a (a <250%) |  |
|  | C[C@H](N)C(=O)O[C@@H]1CCC[C@H]1c1ccc(Cl)cc1.Cl (single isomer, unassigned) [MP-90] | a, a (a <250%) | a, a (a <250%) |  |
|  | C[C@H](NC(=O)OC(C)(C)C)C(=O)O[C@H]1CCC[C@H]1c1ccc(Cl)cc1 (single isomer, unassigned) [MP-91] | a, a (a <250%) | a, a (a <250%) |  |
|  | C[C@H](NC(=O)OC(C)(C)C)C(=O)O[C@H]1CCC[C@H]1c1ccc(Cl)cc1 (single isomer, unassigned) [MP-92] | a, a (a <250%) | a, a (a <250%) |  |
|  | C[C@H](N)C(=O)O[C@@H]1CCC[C@@H]1c1ccc(Cl)cc1.Cl (single isomer, unassigned) [MP-93] | C (C = 100% increase versus control) | A (A >20%) |  |
|  | C[C@H](N)C(=O)O[C@H]1CCC[C@H]1c1ccc(Cl)cc1.Cl (single isomer, unassigned) [MP-94] | A (A >20%) | a (a <250%) |  |
|  | C[C@H](NC(=O)OC(C)(C)C)C(=O)N[C@@H]1CCC[C@@H]1c1ccc(Cl)cc1 (single isomer, unassigned) [MP-96] | a, a (a <250%) | a, a (a <250%) |  |
| 1.02(2) | C[C@@H](N)C(=O)OC1(Cc2ccc(Cl)cc2)CCNCC1 (stereo in doubt) [MP-49, 4-(4-chlorobenzyl)piperidin-4-yl alaninate] | B (B >50%) | A (A >20%) |  |
|  | C[C@H](NC(=O)OC(C)(C)C)C(=O)N(C)[C@H]1CCC(c2ccc(Cl)c(Cl)c2)c2ccccc21 (stereo in doubt) [MP-80, tert-butyl ((S)-1-(((1S,4R)-4-(3,4-dichlorophenyl)-1,2,3,4-tetrahydronaphthalen-1-yl)(methyl)amino)-1-oxopropan-2-yl)carbamate] | a, a (a <250%) | a, a (a <250%) |  |
|  | C[C@H](N)C(=O)N(C)[C@H]1CCC(c2ccc(Cl)c(Cl)c2)c2ccccc21.Cl (stereo in doubt) [MP-81, (S)-2-amino-N-((1S,4R)-4-(3,4-dichlorophenyl)-1,2,3,4-tetrahydronaphthalen-1-yl)-N-methylpropanamide hydrochloride] | B, B (B >50%) | B, B (B >50%) |  |
|  | O=C1NCc2ccccc2C[C@@H]1N[C@@H](c1ccccc1)[C@H](O)c1ccccc1 (stereo in doubt) [MP-102, 4(R)-(1R,2S)-1,2-diphenyl-2-hydroxyethylamino-2,3,4,5-tetrahydro-1H-2-benzazepin-3-one] | a, a (a <250%) | a, a (a <250%) |  |
| 4.72 | CC(C)(Cc1ccc(Cl)cc1)OC(=O)C(N)Cc1ccccc1 (stereo not drawn) [MP-01, 1-(4-chlorophenyl)-2-methylpropan-2-yl 2-amino-3-phenylpropanoate] | A, A (A >20%) | A, A (A >20%) |  |
| 3.17 | CC(N)C(=O)OC(C)(C)Cc1ccccc1 (stereo not drawn) [MP-02, 2-methyl-1-phenylpropan-2-yl 2-aminopropanoate] | A, A (A >20%) | A, A (A >20%) |  |
| 2.37 | CC(N)C(=O)OC(C)(C)Cc1ccc(F)c(F)c1 (stereo not drawn) [MP-03, 1-(3,4-difluorophenyl)-2-methylpropan-2-yl 2-aminopropanoate] | C (C = 100% increase versus control) | B (B >50%) |  |
| 2.75 | CC(N)C(=O)OC(C)(C)Cc1ccc(F)cc1 (stereo not drawn) [MP-04, 1-(4-fluorophenyl)-2-methylpropan-2-yl 2-aminopropanoate] | B (B >50%) | A (A >20%) |  |

| PAMPA (PAMPA) | Structure (SMILES) | SirT1 SOμM [1] | SirT1 SμM [1] | SirT1 increase [1] |
| --- | --- | --- | --- | --- |
|  | C[C@H](N)C(=O)Nc1cccc2ccccc12 [MP-54, (S)-2-amino-N-(naphthalen-1-yl)propanamide] | C (C = 100% increase versus control) | A (A >20%) |  |
|  | C[C@H](Nc1ccccc1-c1ccccc1)C(N)=O [MP-60] | B (B >50%) | A (A >20%) |  |
|  | N[C@H]1Cc2ccccc2CNC1=O [MP-71, (S)-4-amino-4,5-dihydro-1H-benzo[c]azepin-3(2H)-one hydrochloride] | C (C = 100% increase versus control) | B (B >50%) |  |
|  | C[C@H](NC(=O)OC(C)(C)C)C(=O)OC(C)(C)Cc1ccc(C(F)(F)F)cc1 [MP-75, 2-methyl-1-(4-(trifluoromethyl)phenyl)propan-2-yl 2-((tert-butoxycarbonyl)amino)propanoate] | a, a (a <250%) | a, a (a <250%) |  |
|  | C[C@H](N)C(=O)NC(C)(C)Cc1ccc(F)cc1.Cl [MP-83, (S)-2-amino-N-(1-(4-fluorophenyl)-2-methylpropan-2-yl)propanamide hydrochloride] | A (A >20%) | a (a <250%) |  |
|  | C[C@H](N)C(=O)NC1CCc2ccccc2NC1=O (stereo partly drawn) [MP-84, (2S)-2-amino-N-(2-oxo-2,3,4,5-tetrahydro-1H-benzo[b]azepin-3-yl)propanamide hydrochloride] | A (A >20%) | a (a <250%) |  |
|  | C[C@H](NC(=O)OC(C)(C)C)C(=O)N[C@H]1CCC[C@@H]1c1ccc(Cl)cc1 [MP-85, tert-butyl ((S)-1-(((1S,2R)-2-(4-chlorophenyl)cyclopentyl)amino)-1-oxopropan-2-yl)carbamate] | a, a (a <250%) | a, a (a <250%) |  |
|  | C[C@H](N)C(=O)N[C@H]1CCC[C@@H]1c1ccc(Cl)cc1.Cl [MP-86, (S)-2-amino-N-((1S,2R)-2-(4-chlorophenyl)cyclopentyl)propanamide] | B (B >50%) | A (A >20%) |  |
|  | C[C@H](N)C(=O)O[C@@H]1CCC[C@H]1c1ccc(Cl)cc1.Cl [MP-89, (S)-(1R,2S)-2-(4-chlorophenyl)cyclopentyl 2-aminopropanoate hydrochloride] | A (A >20%) | a (a <250%) |  |
|  | C[C@H](N)C(=O)NC(C)(C)Cc1ccncc1.Cl [MP-100, (S)-2-amino-N-(2-methyl-1-(pyridin-4-yl)propan-2-yl)propanamide hydrochloride] | A, A (A >20%) | A, A (A >20%) |  |
|  | C[C@H](N)C(=O)NC(C)(C)c1ccc(Cl)cc1.Cl [MP-101, (S)-2-amino-N-(2-(4-chlorophenyl)propan-2-yl)propanamide hydrochloride] | B (B >50%) | a (a <250%) |  |
|  | C[C@H](N)C(=O)N[C@H]1Cc2ccccc2CN(C)C1=O.Cl [MP-104, (S)-2-amino-N—((S)-2-methyl-3-oxo-2,3,4,5-tetrahydro-1H-benzo[c]azepin-4-yl)propanamide hydrochloride] | A (A >20%) | a (a <250%) |  |
|  | C[C@H](N)C(=O)N[C@H]1Cc2ccccc2CNC1=O.Cl [MP-105, (S)-2-amino-N—((S)-3-oxo-2,3,4,5-tetrahydro-1H-benzo[c]azepin-4-yl)propanamide hydrochloride] | a, a (a <250%) | a, a (a <250%) |  |
|  | C[C@H](N)C(=O)NC(C)(Cc1cc(F)cc(F)c1)Cc1cc(F)cc(F)c1 [MP-106, (S)-2-amino-N-(1,3-bis(3,5-difluorophenyl)-2-methylpropan-2-yl)propanamide hydrochloride] | a, a (a <250%) | a, a (a <250%) |  |
|  | N[C@@H](CO)C(=O)NCCc1ccc(Cl)cc1 [MP-107] | A, A (A >20%) | A, A (A >20%) |  |
|  | CN1Cc2ccccc2C[C@H](N)C1=O [MP-108] | A, A (A >20%) | A, A (A >20%) |  |
|  | Cl.N[C@H]1Cc2cc(Cl)ccc2CNC1=O [MP-109, (S)-4-amino-7-chloro-4,5-dihydro-1H-benzo[c]azepin-3(2H)-one] | B (B >50%) | A (A >20%) | increases SirT1 |
|  | CNCCC(Oc1ccc(C(F)(F)F)cc1)c1ccccc1 (stereo not drawn) [fluoxetine, reference compound] |  |  | did not increase SirT1 |
|  | CC12CC3CC(C)(C1)CC(N)(C3)C2 [memantine, reference compound] |  |  | did not increase SirT1 |

From patent publication US20240083839A1, “COMPOSITIONS AND METHODS FOR TREATING NEURODEGENERATIVE DISEASES AND DISORDERS” (The Regents of the University of California, priority 2020, published 2024)
